Test results: patent US12097177B2, “Therapeutic method for cat with chronic kidney disease” (Toray Industries, Inc., priority 2021, dated 2024)

How the values were obtained:
cats with CKD [1] = assay: Retrospective observation study: period before kidney death (serum creatinine higher than 10.0 mg/dL), BPS therapy vs No BPS therapy; format: in vivo, cat; settings: for 3-year kidney survival rate: cats with CKD; for average period before kidney death: Kaplan-Meier
Protocol: Based on the drug prescription records, cats were divided into two groups: a BPS therapy group consisting of 73 cats; and a BPS therapy-free group consisting of 126 cats.
In Example 3, the periods before kidney death were compared and analyzed retrospectively. The timing of kidney death was determined with reference to the guidelines on acute kidney insufficiency from the International Renal Interest Society. On the basis of the statement such that “a patient may die within 5 to 10 days despite appropriate conservative therapy without kidney replacement therapy if serum creatinine is higher than 10.0 mg/dL,” specifically, kidney death was determined when serum creatinine of higher than 10.0 mg/dL was recorded in the serum creatinine test. By designating kidney death as the outcome, the start date of treatment as the point of origin for the cats in the BPS therapy group, and the start date of observation as the point of origin for the cats in the No BPS therapy group, the periods (months) before the outcome was observed were recorded. In analysis, the 3-year kidney survival rates (%) of the BPS therapy group and of the No BPS therapy group, the standard errors thereof, the 95% confidence intervals, and the comparison of the 3-year kidney survival rates (%) between the groups were calculated. […] Differences in the kidney survival rates were assessed by the log rank test, the Cochran-Mantel-Haenszel test, by setting significant level at a two-tailed P-value of <0.05.
Based on the drug prescription records, cats were divided into two groups: a BPS therapy group consisting of 37 cats; and a BPS therapy-free group consisting of 332 cats.
In Comparative Example 2, the periods before kidney death were compared and analyzed retrospectively. The timing of kidney death was determined with reference to the guidelines on acute kidney insufficiency from the International Renal Interest Society. On the basis of the statement such that “a patient may die within 5 to 10 days despite appropriate conservative therapy without kidney replacement therapy if serum creatinine is higher than 10.0 mg/dL,” specifically, kidney death was determined when serum creatinine of higher than 10.0 mg/dL was recorded in the serum creatinine test. By designating kidney death as the outcome, the start date of treatment as the point of origin for the cats in the BPS therapy group, and the start date of observation as the point of origin for the cats in the No BPS therapy group, the periods (months) before the outcome was observed were recorded. In analysis, the 3-year kidney survival rates (%) of the BPS therapy group and of the No BPS therapy group, the standard errors thereof, the 95% confidence intervals, and the comparison of the 3-year kidney survival rates (%) between the groups were calculated. […] Differences in the kidney survival rates were assessed by the log rank test, the Cochran-Mantel-Haenszel test, by setting significant level at a two-tailed P-value of <0.05.

[2] = test system: cats with naturally occurring CKD; settings: cited from earlier work
cats with CKD [3] = settings: 20 to 55 μg twice daily, 2 months to 3 years and 3 months; cited from earlier work
[4] = test system: kidney of rat progressive glomerulonephritis; settings: in vivo; cited from earlier work
[5] = test system: patient with chronic renal failure; settings: BPS immediate release tablets; serum creatinine of 2.2 mg/dl or higher; cited from earlier work
[6] = 55 μg or 6 to 26.4 μg/kg, preferably twice daily for 30 days or longer (WO '949)

CC#CCC(C)[C@H](O)/C=C/[C@@H]1[C@H]2c3cccc(CCCC(=O)[O-])c3O[C@H]2C[C@H]1O.[Na+] (some centres unmarked) [BPS, Beraprost sodium]
3-year kidney survival rate (cats with CKD [1]; serum creatinine 1.6 to 2.8 mg/dL (stage 2)): 90.0%
3-year kidney survival rate (cats with CKD [1]; serum creatinine 2.9 to 5.0 mg/dL (stage 3) or higher than 5.0 mg/dL (stage 4), 10.0 mg/dL or lower): 77.1%
3-year kidney survival rate of BPS therapy group relative to No BPS therapy group (cats with CKD [1]; stage 2): 0.95 times
average kidney survival period of BPS therapy group relative to No BPS therapy group (cats with CKD [1]; stage 2): 0.97 times
average period before kidney death (cats with CKD [1]; stage 2): 40.8 months
effect on kidney death (cats with CKD [1]; stage 2 before initiation of administration): no effects of BPS administration to inhibit kidney death were observed
3-year kidney survival rate of BPS therapy group relative to No BPS therapy group (cats with CKD [1]; stage 3 or 4): 1.20 times
average kidney survival period of BPS therapy group relative to No BPS therapy group (cats with CKD [1]; stage 3 or 4): 1.48 times
average period before kidney death (cats with CKD [1]; stage 3 or 4): 39.2 months
effect on kidney death (cats with CKD [1]; stage 3 or 4 before initiation of administration): effects of BPS administration to inhibit kidney death were observed
adverse side effects [2, 6]: without adverse side effects
kidney function marker values [2, 6]: inhibit elevation in kidney function marker values such as serum creatinine and BUN
tolerability and safety ([2]; 55 μg twice daily for 6 months): well-tolerated and safe
serum creatinine ([2]; 55 μg twice daily for 6 months, vs placebo): inhibited serum creatinine elevation observed in the placebo group
clinical symptoms and kidney function (cats with CKD [3]): stabilized clinical symptoms and maintained kidney function
pharmacological activity on renal microvascular network [4]: improving microvascular network failure of kidney tissue
effects of BPS in chronic renal failure [5]: effects of BPS are not observed
